Data as given in patent US20100267561A1, “HERBICIDAL PYRIDAZINONE DERIVATIVES” (priority 2007, published 2010).
Read-outs that look alike come from different tables or passages of the source.

Legend:
Assay in all cases: Test B pre-/postemergence plant response
Format in all cases: in vivo
[1] = tested on: giant foxtail (Setaria faberii); conditions: for pest or weed control at 31 g/ha: 31 g ai/ha; for pest or weed control at 62 g/ha: 62 g ai/ha, 100 complete control
Outline: (§1)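 Visual scoring from 0 (no effect) to 100 (complete control) against untreated controls was done 13 to 15 days after greenhouse treatment. Chemicals were formulated in a surfactant-containing non-phytotoxic solvent and applied to soil preemergence or to 1- to 4-leaf (2-18 cm) plants postemergence.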

[2] = tested on: eastern black (E.B.) nightshade (Solanum ptycanthum); conditions: Preemergence
Outline: as §1

corn (Zea mays) = conditions: for Corn plant response rating (crop injury, 0 = no effect, 100 = complete kill) at 31 g/ha: 31 g ai/ha; for Corn plant response rating (crop injury, 0 = no effect, 100 = complete kill) at 62 g/ha: 62 g ai/ha, 100 complete control
Outline: as §1

[3] = tested on: morningglory (Ipomoea coccinea); conditions: for pest or weed control at 31 g/ha / pest or weed control at 62 g/ha: Ipomoea, read-out: Plant response rating, Morningglory; for pest or weed control at 31 g/ha: 31 g ai/ha; for pest or weed control at 62 g/ha: 62 g ai/ha, 100 complete control
Outline: as §1

[4] = tested on: woolly cupgrass (Eriochloa villosa); conditions: for pest or weed control at 31 g/ha: 31 g ai/ha; for pest or weed control at 62 g/ha: 62 g ai/ha, 100 complete control
Outline: as §1

[5] = tested on: johnsongrass (Sorghum halepense); conditions: for pest or weed control at 31 g/ha / pest or weed control at 62 g/ha: Sorghum halepense, read-out: Plant response rating, Johnsongrass; for pest or weed control at 31 g/ha: 31 g ai/ha; for pest or weed control at 62 g/ha: 62 g ai/ha, 100 complete control
Outline: as §1

[6] = tested on: blackgrass (Alopecurus myosuroides); conditions: for pest or weed control at 31 g/ha: 31 g ai/ha; for pest or weed control at 62 g/ha: 62 g ai/ha, 100 complete control
Outline: as §1

[7] = tested on: catchweed bedstraw (Galium aparine); conditions: Preemergence
Outline: as §1

[8] = tested on: common (oilseed) sunflower (Helianthus annuus); conditions: Preemergence
Outline: as §1

[9] = tested on: pigweed (Amaranthus retroflexus); conditions: for pest or weed control at 31 g/ha / pest or weed control at 62 g/ha: Amaranthus retroflexus, read-out: Plant response rating, Pigweed; for pest or weed control at 31 g/ha: 31 g ai/ha; for pest or weed control at 62 g/ha: 62 g ai/ha, 100 complete control
Outline: as §1

[10] = tested on: green foxtail (Setaria viridis); conditions: for pest or weed control at 31 g/ha: 31 g ai/ha; for pest or weed control at 62 g/ha: 62 g ai/ha, 100 complete control
Outline: as §1

[11] = tested on: downy bromegrass (Bromus tectorum); conditions: for pest or weed control at 31 g/ha: 31 g ai/ha; for pest or weed control at 62 g/ha: 62 g ai/ha, 100 complete control
Outline: as §1

[12] = tested on: surinam grass (Brachiaria decumbens); conditions: for pest or weed control at 31 g/ha / pest or weed control at 62 g/ha: Urochloa decumbens, read-out: Plant response rating, Surinam Grass; for pest or weed control at 31 g/ha: 31 g ai/ha; for pest or weed control at 62 g/ha: 62 g ai/ha, 100 complete control
Outline: as §1

[13] = 8 g ai/ha, postemergence, 0-100 scale
[14] = Preemergence, 8 g ai/ha, scale 0 to 100 (0 no effect, 100 complete control)
[15] = Preemergence, 16 g ai/ha, scale 0 to 100
[16] = 8 g ai/ha, scale 0 to 100 (0 no effect, 100 complete control)
[17] = 16 g ai/ha, postemergence, 0-100 scale
[18] = post-emergence, Postemergence, scale 0 to 100
[19] = post-emergence, Postemergence, scale 0 to 100, 0 no effect
[20] = pre-emergence, Preemergence, scale 0 to 100 (0 no effect, 100 complete control)
[21] = pre-emergence, Preemergence, 0 to 100 scale, 0 no effect

Cc1nn(C)c(=O)c(-c2nc(-c3ccc(Cl)cc3)sc2C)c1O [Compound 79, 4-[2-(4-chlorophenyl)-5-methyl-4-thiazolyl]-5-hydroxy-2,6-dimethyl-3(2H)-pyridazinone]
Foxtail, Giant plant response rating [1, 13]: 75 | Foxtail, Giant plant response rating [1, 14]: 55 | Foxtail, Giant plant response rating [1, 15]: 100 | pest or weed control at 16 g/ha ([1]; Setaria faberi, post-emergence, Postemergence, 16 g ai/ha, scale 0 to 100, read-out: Plant response rating, Foxtail, Giant): 80% | pest or weed control at 31 g/ha ([1]; Setaria faberi, post-emergence, Postemergence, scale 0 to 100, read-out: Plant response rating, Foxtail, Giant): 85% | pest or weed control at 62 g/ha ([1]; Setaria faberi, post-emergence, Postemergence, scale 0 to 100, 0 no effect, read-out: Plant response rating, Foxtail, Giant): 90% | pest or weed control at 31 g/ha ([1]; Setaria faberi, pre-emergence, Preemergence, scale 0 to 100 (0 no effect, 100 complete control), read-out: Plant response rating, Foxtail, Giant): 100% | pest or weed control at 62 g/ha ([1]; Setaria faberi, pre-emergence, Preemergence, 0 to 100 scale, 0 no effect, read-out: Plant response rating, Foxtail, Giant): 100% | Nightshade, E. B. plant response rating [2, 16]: 0 | Nightshade, E. B. plant response rating ([2]; 16 g ai/ha, scale 0 to 100): 0 | pest or weed control at 62 g/ha ([2]; Solanum, pre-emergence, 62 g ai/ha, 0 to 100 scale, 0 no effect, 100 complete control, read-out: Plant response rating, Nightshade, E. B.): 0% | Corn plant response rating (corn (Zea mays); [13]): 0 | Corn plant response rating (corn (Zea mays); [14]): 0 | Corn plant response rating (corn (Zea mays); [15]): 0 | Corn plant response rating (crop injury, 0 = no effect, 100 = complete kill) at 16 g/ha (corn (Zea mays); Zea mays, post-emergence, Postemergence, 16 g ai/ha, scale 0 to 100): 0% | Corn plant response rating (crop injury, 0 = no effect, 100 = complete kill) at 31 g/ha (corn (Zea mays); Zea mays, post-emergence, Postemergence, scale 0 to 100): 20% | Corn plant response rating (crop injury, 0 = no effect, 100 = complete kill) at 62 g/ha (corn (Zea mays); Zea mays, post-emergence, Postemergence, scale 0 to 100, 0 no effect): 35% | Corn plant response rating (crop injury, 0 = no effect, 100 = complete kill) at 31 g/ha (corn (Zea mays); Zea mays, pre-emergence, Preemergence, scale 0 to 100 (0 no effect, 100 complete control)): 50% | Corn plant response rating (crop injury, 0 = no effect, 100 = complete kill) at 62 g/ha (corn (Zea mays); Zea mays, pre-emergence, Preemergence, 0 to 100 scale, 0 no effect): 100% | Morningglory plant response rating [3, 13]: 0 | Morningglory plant response rating [3, 17]: 0 | pest or weed control at 31 g/ha [3, 18]: 0% | pest or weed control at 62 g/ha [3, 19]: 0% | pest or weed control at 31 g/ha [3, 20]: 0% | pest or weed control at 62 g/ha [3, 21]: 0% | Morningglory plant response rating [3, 14]: 0 | Morningglory plant response rating [3, 15]: 0 | Cupgrass, Woolly plant response rating [4, 13]: 60 | pest or weed control at 16 g/ha ([4]; Eriochloa villosa, post-emergence, Postemergence, 16 g ai/ha, scale 0 to 100, read-out: Plant response rating, Cupgrass, Woolly): 65% | pest or weed control at 31 g/ha ([4]; Eriochloa villosa, post-emergence, Postemergence, scale 0 to 100, read-out: Plant response rating, Cupgrass, Woolly): 75% | pest or weed control at 62 g/ha ([4]; Eriochloa villosa, post-emergence, Postemergence, scale 0 to 100, 0 no effect, read-out: Plant response rating, Cupgrass, Woolly): 80% | pest or weed control at 31 g/ha ([4]; Eriochloa villosa, pre-emergence, Preemergence, scale 0 to 100 (0 no effect, 100 complete control), read-out: Plant response rating, Cupgrass, Woolly): 100% | pest or weed control at 62 g/ha ([4]; Eriochloa villosa, pre-emergence, Preemergence, 0 to 100 scale, 0 no effect, read-out: Plant response rating, Cupgrass, Woolly): 100% | Cupgrass, Woolly plant response rating [4, 14]: 20 | Cupgrass, Woolly plant response rating [4, 15]: 65 | Johnsongrass plant response rating [5, 13]: 85 | Johnsongrass plant response rating [5, 17]: 90 | Johnsongrass plant response rating [5, 14]: 65 | Johnsongrass plant response rating [5, 15]: 85 | pest or weed control at 31 g/ha [5, 18]: 100% | pest or weed control at 62 g/ha [5, 19]: 100% | pest or weed control at 31 g/ha [5, 20]: 100% | pest or weed control at 62 g/ha [5, 21]: 100% | Blackgrass plant response rating [6, 13]: 50 | pest or weed control at 16 g/ha ([6]; Alopecurus myosuroides, post-emergence, Postemergence, 16 g ai/ha, scale 0 to 100, read-out: Plant response rating, Blackgrass): 50% | pest or weed control at 31 g/ha ([6]; Alopecurus myosuroides, post-emergence, Postemergence, scale 0 to 100, read-out: Plant response rating, Blackgrass): 90% | pest or weed control at 62 g/ha ([6]; Alopecurus myosuroides, post-emergence, Postemergence, scale 0 to 100, 0 no effect, read-out: Plant response rating, Blackgrass): 98% | pest or weed control at 31 g/ha ([6]; Alopecurus myosuroides, pre-emergence, Preemergence, scale 0 to 100 (0 no effect, 100 complete control), read-out: Plant response rating, Blackgrass): 98% | pest or weed control at 62 g/ha ([6]; Alopecurus myosuroides, pre-emergence, Preemergence, 0 to 100 scale, 0 no effect, read-out: Plant response rating, Blackgrass): 100% | Blackgrass plant response rating [6, 14]: 85 | Blackgrass plant response rating [6, 15]: 85 | pest or weed control at 31 g/ha ([7]; Galium aparine, pre-emergence, 31 g ai/ha, scale 0 to 100 (0 no effect, 100 complete control), read-out: Plant response rating, Galium): 0% | pest or weed control at 62 g/ha ([7]; Galium aparine, pre-emergence, 62 g ai/ha, 0 to 100 scale, 0 no effect, 100 complete control, read-out: Plant response rating, Galium): 0% | Galium plant response rating [7, 16]: 0 | Galium plant response rating ([7]; 16 g ai/ha, scale 0 to 100): 0 | pest or weed control at 31 g/ha ([8]; Helianthus annuus, pre-emergence, 31 g ai/ha, scale 0 to 100 (0 no effect, 100 complete control), read-out: Plant response rating, Sunflower): 0% | pest or weed control at 62 g/ha ([8]; Helianthus annuus, pre-emergence, 62 g ai/ha, 0 to 100 scale, 0 no effect, 100 complete control, read-out: Plant response rating, Sunflower): 0% | Sunflower plant response rating [8, 16]: 0 | Sunflower plant response rating ([8]; 16 g ai/ha, scale 0 to 100): 0 | Pigweed plant response rating [9, 13]: 0 | Pigweed plant response rating [9, 17]: 0 | pest or weed control at 31 g/ha [9, 18]: 0% | pest or weed control at 62 g/ha [9, 19]: 0% | pest or weed control at 31 g/ha [9, 20]: 0% | pest or weed control at 62 g/ha [9, 21]: 0% | Pigweed plant response rating [9, 14]: 0 | Pigweed plant response rating [9, 15]: 0 | Foxtail, Green plant response rating [10, 13]: 75 | Foxtail, Green plant response rating [10, 14]: 30 | Foxtail, Green plant response rating [10, 15]: 60 | pest or weed control at 16 g/ha ([10]; Setaria viridis, post-emergence, Postemergence, 16 g ai/ha, scale 0 to 100, read-out: Plant response rating, Foxtail, Green): 85% | pest or weed control at 31 g/ha ([10]; Setaria viridis, post-emergence, Postemergence, scale 0 to 100, read-out: Plant response rating, Foxtail, Green): 98% | pest or weed control at 62 g/ha ([10]; Setaria viridis, post-emergence, Postemergence, scale 0 to 100, 0 no effect, read-out: Plant response rating, Foxtail, Green): 98% | pest or weed control at 31 g/ha ([10]; Setaria viridis, pre-emergence, Preemergence, scale 0 to 100 (0 no effect, 100 complete control), read-out: Plant response rating, Foxtail, Green): 98% | pest or weed control at 62 g/ha ([10]; Setaria viridis, pre-emergence, Preemergence, 0 to 100 scale, 0 no effect, read-out: Plant response rating, Foxtail, Green): 100% | Bromegrass, Downy plant response rating [11, 13]: 0 | pest or weed control at 16 g/ha ([11]; Bromus tectorum, post-emergence, Postemergence, 16 g ai/ha, scale 0 to 100, read-out: Plant response rating, Bromegrass, Downy): 0% | pest or weed control at 31 g/ha ([11]; Bromus tectorum, post-emergence, Postemergence, scale 0 to 100, read-out: Plant response rating, Bromegrass, Downy): 30% | pest or weed control at 62 g/ha ([11]; Bromus tectorum, post-emergence, Postemergence, scale 0 to 100, 0 no effect, read-out: Plant response rating, Bromegrass, Downy): 50% | pest or weed control at 31 g/ha ([11]; Bromus tectorum, pre-emergence, Preemergence, scale 0 to 100 (0 no effect, 100 complete control), read-out: Plant response rating, Bromegrass, Downy): 55% | pest or weed control at 62 g/ha ([11]; Bromus tectorum, pre-emergence, Preemergence, 0 to 100 scale, 0 no effect, read-out: Plant response rating, Bromegrass, Downy): 80% | Bromegrass, Downy plant response rating [11, 14]: 0 | Bromegrass, Downy plant response rating [11, 15]: 0 | Surinam Grass plant response rating [12, 13]: 65 | Surinam Grass plant response rating [12, 17]: 70 | Surinam Grass plant response rating [12, 14]: 75 | Surinam Grass plant response rating [12, 15]: 85 | pest or weed control at 31 g/ha [12, 18]: 75% | pest or weed control at 62 g/ha [12, 19]: 85% | pest or weed control at 31 g/ha [12, 20]: 100% | pest or weed control at 62 g/ha [12, 21]: 100%
